Reference: patent US20140158116A1, “INHIBITING TRPA1 FOR THE TREATMENT OF ASTHMA” (Cubist Pharmaceuticals, Inc., priority 2012, published 2014)
Where two headings read alike, the source gives them in different places.

What was measured:
[1] = tested on: CFA-induced cold allodynia; assay: Complete Freund's Adjuvant (CFA) cold allodynia rodent pain model; assay type: in vivo; conditions: 150 mg/kg; vehicle 19.8
Procedure: The compound of Formula (Ia) is also active in rodent models of pain in vivo induced by cold allodynia following chronic Complete Freund's Adjuvant-induced inflammation, as described in Example 6. […] The compound of Formula (Ia), the comparator compound of Formula (II) and ketoprofen were tested by the CFA-induced pain test method reported in del Camino et al., J. Neurosci., 30(45):15165-15174, incorporated herein by reference in its entirety. Briefly, the hind paw was sensitized to cold temperature (allodynic), by administering 0.1 mL of Complete Freund's Adjuvant (CFA) to the left hind paw. 2-3 days later, the time taken for the animal to lift its CFA-injected paw was recorded compared to its un-injected normal right hind paw. […] To avoid tissue damage the maximum cut-off time was 5 minutes. Animals that were allodynic (average PWL to the first three pain behaviors <150 seconds for the CFA-injected hind paw: ˜≧50% difference between the normal and CFA-injected paw) were included in the study and subsequently randomized across treatment groups. The following day, the animals were dosed under blinded conditions. Following the 1-2 hour pre-treatment time, the post-dose PWL readings were again taken. The efficacy of the drug treatment was assessed by comparing the PWL in the drug treatment animals to those animals that received the vehicle.

[2] = tested on: formalin-induced pain behavior; assay: Formalin-induced pain behavior in vivo rodent model; parameters: species or system rat; conditions: for # of Flinches: Table 3c, vehicle 120
From the text: The data shown in Tables 3a, 3b, and 3c and FIG. 2 were obtained by administering a pharmaceutical composition comprising the compound of Formula (Ia) to rodents in the formalin-induced pain duration at various doses according to Example 5. Specifically, the data in Tables 3a, 3b, and 3c and FIG. 2 were obtained by intraperitoneal (i.p.) administration of compositions containing different concentrations of the compound of Formula (Ia), a comparator composition containing recited amounts of the comparator compound (e.g., 150 mg/kg of the comparator compound of Formula (II) in Table 3a) and a control composition containing the vehicle (e.g., without the compound of Formula (Ia) or a comparator compound).
The compound of Formula (Ia) and the comparator compounds of Formula (II) and Formula (III) were tested in the formalin-induced pain test reported by Dubuisson et al., Pain 1977 December; 4(2):161-74 (incorporated herein by reference in its entirety). Dubuisson et al. (1977) describe a method for assessing pain and analgesia in rats and cats. Briefly, dilute formalin (50 μL of 3% formalin) is injected into the plantar surface of the hind paw. […] The individual responsible for counting the pain behaviors in a particular study is blinded to the treatment groups.
Rats were treated with the HCl salt of Compound (Ia) at various doses (3, 10, 30, and 50 mg/kg, IP) or with the vehicle (IP).

rTRPA1 = rTRPA1 (Rattus norvegicus, UniProt Q6RI86); assay: Whole-cell patch clamp block of inward current through rTRPA1; assay type: cell-based; conditions: class symbol; read-out: Potency (IC50) Rat
Procedure: (§1) Data for TRPA1 inhibition and the selectivity of TRPA1 inhibition was obtained by this method for the compound of Formula (Ia) and included in Table 1 and Table 2. All currents were recorded in whole-cell configuration using EPC-9 and EPC-10 amplifiers and Patchmaster software (HEKA). […] The standard pipette solution consisted of 140 mM CsAsp, 10 mM EGTA, 10 mM HEPES, 2.27 mM MgCl2, 1.91 mM CaCl2, 4 mM MgATP, and 0.1-0.3 mM Na2GTP, with pH adjusted to 7.2 with CsOH. In addition, a solution containing 145 mM CsCl, 10 mM HEPES, 10 mM EGTA and 1 mM MgCl2 (pH 7.2 adjusted with CsOH) can be used. The standard bath solution contained 150 mM NaCl, 10 mM HEPES, 10 mM glucose, 4.5 mM KCl, 1 mM EGTA, 3 mM MgCl2, with pH adjusted to 7.4 with NaOH. In some instances, 2 mM CaCl2 was added in place of EGTA and the concentration of MgCl2 was reduced to 1 mM.
(§2) Data were collected either by continuous recordings at −60 mV or by applying voltage ramps from a holding potential of 0 mV every 4 s. Continuous recordings were collected at 400 Hz and digitally filtered off-line at 10 Hz for presentation. Voltage ramps were applied from −100 mV to 100 mV over the course of 400 ms, and data were collected at 10 kHz and filtered at 2.9 kHz. Inward and outward currents were analyzed from the ramps at −80 and 80 mV, respectively. Liquid junction potential correction was not used.
(§3) Solutions were switched using a gravity-fed continuous focal perfusion system. To achieve rapid temperature changes, two temperature control and perfusion systems were employed simultaneously. For temperatures ≧22° C., a Warner Instruments bipolar temperature controller (TC-344B) and inline heater (SHM-8) were used. […] Temperatures were confirmed using a thermistor (Warner Instruments, TA-29), with temperatures at the recorded cell estimated to be within +/−2° C. of those reported.
(§4) IC50 of compounds was estimated by testing each compound at 5 micromolar and 500 nanomolar. […] IC50 for compounds between 500 nanomolar and 5 micromolar was similarly estimated. […]

[3] = Oral bioavailability pharmacokinetic study; assay type: in vivo; conditions: rat, plasma, PO versus IV
Procedure: The potency and pharmacokinetic (PK) properties of (a) the compound of Formula (Ia); and (b) comparator compound of Formula (III) were evaluated. Bioavailability was measured as well. A pharmacokinetic study was performed to obtain a plasma drug concentration vs time plot for the drug after both intravenous (IV) and oral (PO) administration. The absolute bioavailability is the dose-corrected area under curve (AUC) non-intravenous divided by AUC intravenous. The formula for calculating F for a drug administered by the oral route (PO) is given below.
The bioavailability was calculated using the equation shown below:
% F=AUC PO×Dose IV/AUC IV×Dose PO

[4] = tested on: serum biomarkers of hepatotoxicity (ALT, AST, ALP, GGT); assay: Hepatotoxicity serum biomarker study in dogs, oral dose; assay type: in vivo, dog; conditions: for ALT level elevation: single PO dose of 50 mg/kg
Procedure: The compound of Formula (Ia) was orally dosed to […] at dose levels of 5, 15 or 50 mg/kg using 30% Sulfobutylether β-cyclodextrin as the vehicle for assessment of safety as measured via serum chemistry biomarkers of hepatotoxicity or bile duct injury FIG. 5A, showing measurements of alanine aminotranferease [ALT], aspartate aminotranferease [AST], alkaline phosphatase [ALP] and gamma-glutamyl transferase [GGT] in the dogs at each dose level (each bar represents a measurement from 1 dog in the study). […] For example, the ALT levels were elevated up to about 60-fold in male dogs and up to about 130-fold in female beagle dogs following a single PO dose of 50 mg/kg.

dTRPA1 = dTRPA1 (Canis lupus familiaris, UniProt A0A8I3Q1Q7); assay: Whole-cell patch clamp block of inward current through dTRPA1; assay type: cell-based, Dog; conditions: class symbol; read-out: Potency (IC50) Dog
Procedure: as §1, §2, §3, §4

[5] = 7-day repeat dose i.p. screening toxicity study in rats; assay type: in vivo, rat; conditions: rats; 50 mg/kg/day i.p. for 7 consecutive days
Procedure: The compound of Formula (Ia) was evaluated in a 7-day repeat dose screening toxicity study in female rats. In order to maximize systemic exposure, rats were administered compound of Formula (Ia) i.p. at 50 mg/kg/day for 7 consecutive days, to obtain the results shown in FIG. 6. Clinical chemistry parameters were evaluated on Days 3 and 8. Histopathology was performed on select organs including the liver, kidney, spleen, and lung.

[6] = Human plasma protein binding by equilibrium dialysis; assay type: in vitro ADME; conditions: percentage bound
Procedure: The amount of compound in buffer (free fraction) and the amount of compound associated with the plasma fraction is determined by equilibrium dialysis; the amount of compound bound is expressed as a percentage. (Banker et al., Journal of Pharmaceutical Sciences (2003) 92(5): 967-74.)

hTRPA1 [7] = target: T1, hTRPA1 (Homo sapiens, UniProt O75762); assay: Whole-cell patch clamp block of inward current through hTRPA1; assay type: cell-based
Procedure: as §1, §2, §3
IC50 of compounds was estimated by testing each compound at 5 micromolar and 500 nanomolar. […] IC50 for compounds between 500 nanomolar and 5 micromolar was similarly estimated. Compounds blocking 50% or more at 500 nanomolar are retested at multiple concentrations, and the % block at each is fitted by standard equations to determine IC50 accurately using a 5-6 point concentration/response experiment.

hTRPA1 [8] = target: T1, hTRPA1; assay: hTrpA1 IC50 measured in 1% RSA (rat serum albumin); assay type: cell-based
[9] = hTRPA1, Human, current activation 10 micromolar AITC, whole cell patch, read-out: IC50 Inward current

T1 sequence (O75762 whole entry): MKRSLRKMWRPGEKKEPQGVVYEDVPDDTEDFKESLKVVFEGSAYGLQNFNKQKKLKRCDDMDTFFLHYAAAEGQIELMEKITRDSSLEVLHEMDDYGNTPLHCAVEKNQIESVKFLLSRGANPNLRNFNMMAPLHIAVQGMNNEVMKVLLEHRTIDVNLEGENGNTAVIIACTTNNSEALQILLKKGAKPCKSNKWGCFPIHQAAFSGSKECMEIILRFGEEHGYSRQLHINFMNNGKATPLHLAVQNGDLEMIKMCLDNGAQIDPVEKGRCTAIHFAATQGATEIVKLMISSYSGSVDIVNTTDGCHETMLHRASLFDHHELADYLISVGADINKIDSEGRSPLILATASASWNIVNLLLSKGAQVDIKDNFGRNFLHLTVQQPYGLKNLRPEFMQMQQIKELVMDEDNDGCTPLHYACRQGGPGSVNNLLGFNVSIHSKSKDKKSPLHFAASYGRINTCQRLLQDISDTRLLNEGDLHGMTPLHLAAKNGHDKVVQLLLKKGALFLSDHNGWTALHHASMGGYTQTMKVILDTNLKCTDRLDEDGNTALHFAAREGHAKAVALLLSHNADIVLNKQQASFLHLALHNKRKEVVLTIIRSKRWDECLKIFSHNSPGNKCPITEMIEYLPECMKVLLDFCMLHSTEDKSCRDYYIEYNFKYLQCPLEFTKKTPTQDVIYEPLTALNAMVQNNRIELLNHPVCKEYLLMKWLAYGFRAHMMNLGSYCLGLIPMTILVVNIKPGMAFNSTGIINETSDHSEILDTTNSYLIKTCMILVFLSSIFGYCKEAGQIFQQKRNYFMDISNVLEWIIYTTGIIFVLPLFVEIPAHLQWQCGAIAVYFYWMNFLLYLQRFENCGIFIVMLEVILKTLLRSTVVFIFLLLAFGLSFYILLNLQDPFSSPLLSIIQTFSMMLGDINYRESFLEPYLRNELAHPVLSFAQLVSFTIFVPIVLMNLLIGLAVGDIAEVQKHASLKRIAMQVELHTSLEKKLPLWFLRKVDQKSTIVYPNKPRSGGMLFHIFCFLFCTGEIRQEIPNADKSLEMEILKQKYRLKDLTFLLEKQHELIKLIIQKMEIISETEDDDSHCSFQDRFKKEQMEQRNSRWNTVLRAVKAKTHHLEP
Sequence of rTRPA1 (Q6RI86 whole entry): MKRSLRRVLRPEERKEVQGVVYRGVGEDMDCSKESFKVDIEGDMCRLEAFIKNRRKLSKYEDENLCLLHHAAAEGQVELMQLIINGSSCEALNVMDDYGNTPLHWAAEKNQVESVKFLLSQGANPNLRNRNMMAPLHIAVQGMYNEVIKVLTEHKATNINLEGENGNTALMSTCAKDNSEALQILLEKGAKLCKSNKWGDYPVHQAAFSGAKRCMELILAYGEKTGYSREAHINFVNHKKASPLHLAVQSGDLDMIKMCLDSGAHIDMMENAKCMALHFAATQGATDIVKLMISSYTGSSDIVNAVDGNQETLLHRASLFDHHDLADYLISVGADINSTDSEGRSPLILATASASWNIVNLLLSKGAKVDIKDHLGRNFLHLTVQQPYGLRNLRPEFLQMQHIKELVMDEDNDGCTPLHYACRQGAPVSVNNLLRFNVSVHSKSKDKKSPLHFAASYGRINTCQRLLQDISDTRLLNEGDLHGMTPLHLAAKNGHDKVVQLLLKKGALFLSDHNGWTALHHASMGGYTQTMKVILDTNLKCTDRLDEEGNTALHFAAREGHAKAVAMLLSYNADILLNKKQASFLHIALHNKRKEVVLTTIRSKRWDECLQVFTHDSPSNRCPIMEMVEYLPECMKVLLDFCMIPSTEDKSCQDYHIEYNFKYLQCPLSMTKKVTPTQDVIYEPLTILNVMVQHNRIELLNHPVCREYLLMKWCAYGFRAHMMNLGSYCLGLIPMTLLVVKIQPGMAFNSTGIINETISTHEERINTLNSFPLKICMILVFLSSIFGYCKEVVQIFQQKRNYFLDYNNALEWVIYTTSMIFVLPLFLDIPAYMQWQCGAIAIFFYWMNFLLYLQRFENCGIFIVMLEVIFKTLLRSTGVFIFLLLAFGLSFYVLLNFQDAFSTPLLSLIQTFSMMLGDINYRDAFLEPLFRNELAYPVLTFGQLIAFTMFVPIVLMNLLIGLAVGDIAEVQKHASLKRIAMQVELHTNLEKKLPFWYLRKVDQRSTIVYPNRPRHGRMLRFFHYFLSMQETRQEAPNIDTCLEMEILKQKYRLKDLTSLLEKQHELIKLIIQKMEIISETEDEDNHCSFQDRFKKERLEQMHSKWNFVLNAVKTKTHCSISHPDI
Sequence of dTRPA1 (A0A8I3Q1Q7 1-1118): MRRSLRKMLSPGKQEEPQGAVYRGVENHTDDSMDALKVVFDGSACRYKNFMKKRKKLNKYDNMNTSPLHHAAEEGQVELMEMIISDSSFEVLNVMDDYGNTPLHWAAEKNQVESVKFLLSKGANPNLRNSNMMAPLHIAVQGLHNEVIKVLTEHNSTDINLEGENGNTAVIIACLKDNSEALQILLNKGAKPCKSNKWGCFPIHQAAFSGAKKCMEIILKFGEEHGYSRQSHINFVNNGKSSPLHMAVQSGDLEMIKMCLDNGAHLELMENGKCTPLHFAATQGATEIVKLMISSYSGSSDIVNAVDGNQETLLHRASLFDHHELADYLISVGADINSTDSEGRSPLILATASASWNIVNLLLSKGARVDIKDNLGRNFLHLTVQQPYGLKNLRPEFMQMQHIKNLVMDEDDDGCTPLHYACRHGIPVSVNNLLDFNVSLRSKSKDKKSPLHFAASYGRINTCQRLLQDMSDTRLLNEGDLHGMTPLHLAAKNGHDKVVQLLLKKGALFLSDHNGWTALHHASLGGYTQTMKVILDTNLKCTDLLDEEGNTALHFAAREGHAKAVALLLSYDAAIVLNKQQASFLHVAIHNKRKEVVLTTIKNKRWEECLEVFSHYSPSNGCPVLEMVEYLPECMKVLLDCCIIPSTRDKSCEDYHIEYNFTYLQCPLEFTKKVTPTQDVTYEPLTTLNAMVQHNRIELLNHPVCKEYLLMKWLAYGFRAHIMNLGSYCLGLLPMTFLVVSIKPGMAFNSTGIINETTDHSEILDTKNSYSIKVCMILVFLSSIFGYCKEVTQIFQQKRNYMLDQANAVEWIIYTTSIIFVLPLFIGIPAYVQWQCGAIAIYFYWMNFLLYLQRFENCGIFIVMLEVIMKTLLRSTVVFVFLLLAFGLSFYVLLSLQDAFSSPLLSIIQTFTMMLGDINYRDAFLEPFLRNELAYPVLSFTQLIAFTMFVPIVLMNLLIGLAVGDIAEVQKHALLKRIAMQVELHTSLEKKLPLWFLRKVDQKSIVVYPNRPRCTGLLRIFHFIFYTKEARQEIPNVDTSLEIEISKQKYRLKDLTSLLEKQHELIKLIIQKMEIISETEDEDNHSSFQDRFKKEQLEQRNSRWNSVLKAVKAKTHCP

## CC(C)c1ccc(NC(=O)Cn2cnc3c2c(=O)n(C)c(=O)n3C)cc1 [Formula (II)]
[1]
  Change in Paw Withdrawal Latency: 142.2
[2]; 30 mg/kg
  # of Flinches: 88
[2]; 100 mg/kg
  # of Flinches: 62
[2]; 150 mg/kg, Table 3a, vehicle 88.6
  Duration of Pain Behavior: 40.0 s
[2]; 300 mg/kg
  # of Flinches: 43

## C[C@H]1CCCN1c1ccc(-c2csc(NC(=O)Cn3cnc4c3c(=O)n(C)c(=O)n4C)n2)cc1F [Formula (III), reference compound]
rTRPA1
  IC50: 50 to 100 nM
[3]; oral, fed rats, read-out: Bioavailability (Rat) Fed
  bioavailability: 1 to 25%
[3]; po, fasted rats, read-out: Bioavailability (Rat) Fasted
  bioavailability: 25 to 50%
[3]; po, fed rats, read-out: Bioavailability (Rat) Fed
  bioavailability: 1 to 25%
[4]; dogs, 50 mg/kg PO
  effect on serum biomarkers of hepatotoxicity: did elevate serum biomarkers of hepatotoxicity
[4]; female beagle dogs
  ALT level elevation: up to 130 fold
[4]; male dogs
  ALT level elevation: up to 60 fold
dTRPA1
  IC50: < 25 nM
[5]
  effect on serum biomarkers of hepatotoxicity: did elevate serum biomarkers of hepatotoxicity as compared to Formula (Ia)
[6]
  fraction unbound: < 0.01
hTRPA1 [7]; [9]
  IC50: < 25 nM
hTRPA1 [7]; hTRPA1, class symbol, read-out: Potency (IC50) Human
  IC50: < 25 nM
[2]; 50 mg/kg, Table 3b, vehicle 77.2
  Duration of Pain Behavior: 44.3 s

## C[C@@H]1CCCN1c1ncc(-c2cccc(NC(=O)Cn3cnc4c3c(=O)n(C)c(=O)n4C)n2)cn1 [Formula (Ib)]
hTRPA1 [8]
  IC50: 15200 nM
hTRPA1 [7]; [9]
  IC50: 77 nM

## NCC1(CC(=O)O)CCCCC1 [Gabapentin]
[2]; reference, dose not given
  # of Flinches: 75
